Results from US6465618B1, “Mitogen activated protein kinase (MAPK) kinase” (Asahi Kasei Kabushikiki Kaisha, priority 1997, dated 2002).

Key:
MKK7 = assay: Activation of MKK7 by TNF-α in KB and U937 cells (immune complex kinase assay); format: cell-based; settings: KB cells 20 ng/ml, U937 cells 100 ng/ml human TNF-α; 5 to 180 minutes
Procedure: (§1) KB cells were cultured in Dulbecco's modified Eagles medium (DMEM) containing 10% bovine serum, and the cultured cells were stimulated with 20 ng/ml human TNF-α (manufactured and sold by BECTON DICKINSON AND COMPANY, USA, under the brand of Collaborative Biomedical Products). U937 cells were cultured in RPMI 1640 medium containing 10% fetal bovine serum, and the cultured cells were stimulated with 100 ng/ml human TNF-α. The cells were sampled from each cell culture 5, 15, 30, 60, 120 and 180 minutes after the start of the stimulation to thereby prepare cell extracts. The cell extracts were prepared as follows. The sampled cells were suspended in 0.7 M NaCl solution and washed once with ice-cold HEPES-buffered saline. […]
(§2) To 200 μl of the cell extract was added 3 μl of an antiserum (anti-MKK7 antiserum and anti-SEK1/MKK4 antiserum were separately used), and a reaction for preparing an immune complex was allowed to proceed while incubating at 4° C. for 1 hour. […] The phosphorylation of c-Jun was detected by autoradiography and used as an index for the activation of MKK7 or SEK1/MKK4 by TNF-α.

SEK1/MKK4 = assay: Activation of SEK1/MKK4 by TNF-α in KB and U937 cells (immune complex kinase assay); format: cell-based; settings: KB cells 20 ng/ml, U937 cells 100 ng/ml human TNF-α; 5 to 180 minutes
Procedure: as §1, §2

TNF-α
activation of MKK7 by TNF-α (phosphorylation of c-Jun as index) (MKK7): activated
activation of SEK1/MKK4 by TNF-α (phosphorylation of c-Jun as index) (SEK1/MKK4): did not activate
